Measurements from US20150335657A1, “Methods for Modulating Sirtuin Enzymes” (The Trustees of Princeton University, priority 2014, published 2015).

Key:
[1] = system: human cytomegalovirus (HCMV) AD169 strain; test: Antiviral activity against HCMV in MRC5 fibroblasts (virus yield, fluorescent focus assay); type: cell-based; conditions: Human betaherpesvirus 5, HCMV AD169, 1 infectious unit/cell, treated 2 h after infection, virus in medium at 96 h
[2] = Tetrazolium-based cell viability assay (cytotoxicity); conditions: human
[3] = biological target: T1, SIRT6 (Homo sapiens, UniProt Q8N6T7); test: Sirtuin deacetylase enzyme activity assay (Cayman Chemical), compound screen; type: biochemical; conditions: compound at 50 μM; Z-score of change in fluorescent signal; + increase, − decrease
T1 construct: purchased Cayman Chemical
T1 sequence (Q8N6T7 whole entry): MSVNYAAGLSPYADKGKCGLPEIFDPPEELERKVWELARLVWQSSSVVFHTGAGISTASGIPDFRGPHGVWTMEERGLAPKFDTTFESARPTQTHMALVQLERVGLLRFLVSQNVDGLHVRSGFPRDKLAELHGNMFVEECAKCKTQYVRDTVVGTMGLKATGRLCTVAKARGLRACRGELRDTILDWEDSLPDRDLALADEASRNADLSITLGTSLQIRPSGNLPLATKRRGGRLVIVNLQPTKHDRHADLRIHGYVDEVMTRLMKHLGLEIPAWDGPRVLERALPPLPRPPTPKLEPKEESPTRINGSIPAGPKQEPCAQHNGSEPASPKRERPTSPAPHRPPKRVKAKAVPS
From the text: (§1) Sirtuins have been identified as innate viral restriction factors and it has been previously shown that drugs that modulate the activity of these enzymes block the production of multiple viruses in culture (see, e.g., WO 2012/106509). Sirtuins are NAD-dependent enzymes that regulate the activity of target proteins by post-translational modifications and thereby control key cellular events (see, e.g., Haigis and Sinclair (2010) Ann Rev Pathol Mech Dis 5:253-95). SIRT1, SIRT2, SIRT3 and SIRT6 have shown a detectable deacetylase activity in well-established biochemical assays that utilize recombinant SIRT1, SIRT2, SIRT3, and SIRT6 enzymes and fluorophore-conjugated acetyl-peptides. As described in the Examples below, the deacetylase activity of these sirtuins were used as a surrogate to identify compounds having broad-range antiviral activity.
(§2) A publically disclosed, small molecule library consisting of approximately 13,000 compounds was screened using a commercially available (Cayman Chemical) enzyme activity assay. Deacetylase activity of sirtuins SIRT1, SIRT2, SIRT3, and SIRT6 was used as a surrogate to identify compounds with the potential for having broad-range antiviral activity. The compounds were tested at a single concentration (50 μM) in microtiter plates and their activity against the four sirtuins was recorded as a change in fluorescent signal intensity. […] Activation of sirtuin activity generated positive Z-scores and inhibition of sirtuin activity produced negative Z-scores.

[4] = biological target: T2, SIRT3 (Homo sapiens, UniProt Q9NTG7); test: as above; type: biochemical; conditions: compound at 50 μM; Z-score of change in fluorescent signal; + increase, − decrease
T2 construct: purchased Cayman Chemical
T2 sequence (Q9NTG7 1-399): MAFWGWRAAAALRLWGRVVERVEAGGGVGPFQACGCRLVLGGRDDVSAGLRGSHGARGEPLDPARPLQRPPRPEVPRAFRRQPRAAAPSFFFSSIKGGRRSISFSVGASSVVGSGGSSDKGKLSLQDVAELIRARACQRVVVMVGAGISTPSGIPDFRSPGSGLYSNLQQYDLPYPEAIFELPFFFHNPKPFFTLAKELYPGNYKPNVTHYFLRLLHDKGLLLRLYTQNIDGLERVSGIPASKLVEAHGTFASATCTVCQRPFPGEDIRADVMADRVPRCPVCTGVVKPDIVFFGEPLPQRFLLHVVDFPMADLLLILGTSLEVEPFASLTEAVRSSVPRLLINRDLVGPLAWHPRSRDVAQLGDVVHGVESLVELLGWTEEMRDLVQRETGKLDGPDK
From the text: as §1, §2

[5] = biological target: T3, SIRT2 (Homo sapiens, UniProt Q8IXJ6); test: as above; type: biochemical; conditions: compound at 50 μM; Z-score of change in fluorescent signal; + increase, − decrease
T3 construct: purchased Cayman Chemical
T3 sequence (Q8IXJ6 1-389): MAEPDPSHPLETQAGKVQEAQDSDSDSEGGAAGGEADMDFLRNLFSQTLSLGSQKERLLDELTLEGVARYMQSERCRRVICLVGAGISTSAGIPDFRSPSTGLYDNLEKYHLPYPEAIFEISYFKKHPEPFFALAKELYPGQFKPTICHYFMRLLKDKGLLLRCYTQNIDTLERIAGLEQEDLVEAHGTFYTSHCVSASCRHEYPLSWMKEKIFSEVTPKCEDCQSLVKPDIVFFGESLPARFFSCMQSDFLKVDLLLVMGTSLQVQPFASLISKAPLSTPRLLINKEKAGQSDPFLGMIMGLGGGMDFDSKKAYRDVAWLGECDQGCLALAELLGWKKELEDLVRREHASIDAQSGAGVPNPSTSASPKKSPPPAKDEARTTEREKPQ
From the text: as §1, §2

[6] = biological target: T4, SIRT1 (Homo sapiens, UniProt Q96EB6); test: as above; type: biochemical; conditions: compound at 50 μM; Z-score of change in fluorescent signal; + increase, − decrease
T4 construct: purchased Cayman Chemical
T4 sequence (Q96EB6 1-747): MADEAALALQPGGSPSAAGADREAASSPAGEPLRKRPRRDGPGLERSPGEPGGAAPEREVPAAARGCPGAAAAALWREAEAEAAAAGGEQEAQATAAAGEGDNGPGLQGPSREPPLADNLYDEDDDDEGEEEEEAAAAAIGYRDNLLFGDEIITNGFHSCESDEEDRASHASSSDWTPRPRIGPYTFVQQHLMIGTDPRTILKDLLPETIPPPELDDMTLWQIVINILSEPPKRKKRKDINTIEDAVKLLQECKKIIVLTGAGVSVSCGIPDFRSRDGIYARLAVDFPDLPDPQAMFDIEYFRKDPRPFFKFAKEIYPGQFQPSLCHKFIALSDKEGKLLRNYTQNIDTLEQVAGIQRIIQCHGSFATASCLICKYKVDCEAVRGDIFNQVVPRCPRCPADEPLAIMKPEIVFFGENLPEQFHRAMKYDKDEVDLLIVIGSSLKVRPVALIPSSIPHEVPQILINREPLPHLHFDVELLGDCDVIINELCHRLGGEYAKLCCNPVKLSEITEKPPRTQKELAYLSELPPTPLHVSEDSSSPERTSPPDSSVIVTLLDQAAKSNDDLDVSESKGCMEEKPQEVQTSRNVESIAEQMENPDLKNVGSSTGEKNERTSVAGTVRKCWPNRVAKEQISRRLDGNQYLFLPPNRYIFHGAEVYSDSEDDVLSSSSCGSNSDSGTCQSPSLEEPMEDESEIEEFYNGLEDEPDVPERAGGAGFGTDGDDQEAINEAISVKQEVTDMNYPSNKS
From the text: as §1, §2

Compound	IC50 [1]	IC90 [1]	CC50 at 96 h [2]	SIRT6 (change in sirtuin deacetylase activity, Z-score class) [3]	SIRT3 (change in sirtuin deacetylase activity, Z-score class) [4]	SIRT2 (change in sirtuin deacetylase activity, Z-score class) [5]	SIRT1 (change in sirtuin deacetylase activity, Z-score class) [6]
CNC(=O)c1cccc(CN(CCC(C)C(C)C)S(=O)(=O)c2c(C)noc2C)c1 (centres unmarked)	10.2 µM	32.8 µM	25 to 50 µM	+++ (Z-score ≧ 3 = +++)	na (−2 ≦ Z-score < 2 = no activity (na))	na (−2 ≦ Z-score < 2 = no activity (na))	na (−2 ≦ Z-score < 2 = no activity (na))
Cc1nn(C2CN(CCn3ccnc3)C(=O)C2c2ccccc2)c(C)c1C (centres unmarked)	11 µM	38.5 µM	> 50 µM	na (−2 ≦ Z-score < 2 = no activity (na))	−−− (Z-score ≦ −3 = −−−)	−−− (Z-score ≦ −3 = −−−)	−−− (Z-score ≦ −3 = −−−)
CNC(=O)c1cccc(CN(CCC(C)C(C)C)S(=O)(=O)c2cn(C)cn2)c1 (centres unmarked)	13.4 µM	41.8 µM	> 50 µM	na (−2 ≦ Z-score < 2 = no activity (na))	na (−2 ≦ Z-score < 2 = no activity (na))	++ (2 ≦ Z-score < 3 = ++)	na (−2 ≦ Z-score < 2 = no activity (na))
CC(c1ccc(F)cc1)C(O)Cn1cc(-c2cc(Cl)cnc2N)nn1 (centres unmarked)	15.1 µM	35.6 µM	> 50 µM	++ (2 ≦ Z-score < 3 = ++)	na (−2 ≦ Z-score < 2 = no activity (na))	na (−2 ≦ Z-score < 2 = no activity (na))	+++ (Z-score ≧ 3 = +++)
Cc1ccccc1C(C)C(CO)NC(=O)c1cn(C)cn1 (centres unmarked)	15.8 µM	41.9 µM	> 50 µM	−− (−3 < Z-score ≦ −2 = −−)	na (−2 ≦ Z-score < 2 = no activity (na))	−−− (Z-score ≦ −3 = −−−)	−−− (Z-score ≦ −3 = −−−)
CC(CCNc1cccnc1)c1c[nH]c2ccccc12 (centres unmarked)	15.8 µM	43.1 µM	> 50 µM	na (−2 ≦ Z-score < 2 = no activity (na))	na (−2 ≦ Z-score < 2 = no activity (na))	+++ (Z-score ≧ 3 = +++)	na (−2 ≦ Z-score < 2 = no activity (na))
COc1ccc2[nH]cc(C(C)CCNc3cccnc3)c2c1 (centres unmarked)	17.4 µM	46.5 µM	> 50 µM	na (−2 ≦ Z-score < 2 = no activity (na))	na (−2 ≦ Z-score < 2 = no activity (na))	+++ (Z-score ≧ 3 = +++)	na (−2 ≦ Z-score < 2 = no activity (na))
CCN1CC(C(C)c2ccc(C)nc2)Oc2ccc(C(F)(F)F)cc2C1=O (centres unmarked)	18.4 µM	42.3 µM	> 50 µM	na (−2 ≦ Z-score < 2 = no activity (na))	na (−2 ≦ Z-score < 2 = no activity (na))	+++ (Z-score ≧ 3 = +++)	na (−2 ≦ Z-score < 2 = no activity (na))
CC(c1ccccc1F)C(O)CNc1ccc(O)nc1 (centres unmarked)	19.4 µM	44 µM	> 50 µM	+++ (Z-score ≧ 3 = +++)	+++ (Z-score ≧ 3 = +++)	na (−2 ≦ Z-score < 2 = no activity (na))	na (−2 ≦ Z-score < 2 = no activity (na))
CC(c1ccnn1C)C(CN1CCN(C)CC1)Oc1ccc(C#N)cn1 (centres unmarked)	21.1 µM	42.4 µM	> 50 µM	+++ (Z-score ≧ 3 = +++)	na (−2 ≦ Z-score < 2 = no activity (na))	na (−2 ≦ Z-score < 2 = no activity (na))	−− (−3 < Z-score ≦ −2 = −−)
COc1ccccc1C1C(=O)N(C(C)C)CC1O (centres unmarked)	23.9 µM	47.2 µM	> 50 µM	na (−2 ≦ Z-score < 2 = no activity (na))	na (−2 ≦ Z-score < 2 = no activity (na))	+++ (Z-score ≧ 3 = +++)	na (−2 ≦ Z-score < 2 = no activity (na))
CC(C)c1cc(N)n(C(C(=O)O)C(C)c2ccccc2Cl)n1 (centres unmarked)	25.5 µM	57.9 µM	> 50 µM	na (−2 ≦ Z-score < 2 = no activity (na))	na (−2 ≦ Z-score < 2 = no activity (na))	−− (−3 < Z-score ≦ −2 = −−)	−− (−3 < Z-score ≦ −2 = −−)
COc1cccc(C(C)C(O)Cn2cc(-c3cc(Cl)cnc3N)nn2)c1 (centres unmarked)	26.2 µM	44.3 µM	> 50 µM	+++ (Z-score ≧ 3 = +++)	na (−2 ≦ Z-score < 2 = no activity (na))	na (−2 ≦ Z-score < 2 = no activity (na))	+++ (Z-score ≧ 3 = +++)
COc1ccc(C(C)C(CN2CCc3ccccc3C2)n2nc(-c3cccnc3)cc2N)cc1 (centres unmarked)	27.7 µM	55.7 µM	> 50 µM	na (−2 ≦ Z-score < 2 = no activity (na))	na (−2 ≦ Z-score < 2 = no activity (na))	−− (−3 < Z-score ≦ −2 = −−)	−−− (Z-score ≦ −3 = −−−)
